# Assay results: patent publication US6676932B2, “Ultraviolet absorbent, photostabilizer, ultraviolet ray-absorbing composition, photostabilized composition and external preparation for skin” (Shiseido Co., Ltd., priority 2001, dated 2004)
# How the values were obtained:
# Type in all cases: physicochemical
# [1] = Dye stabilization effect under daylight exposure (Test Examples 6-91); set-up: key to Δ E: color difference ΔE in Lab vs. color before daylight exposure; key to Appearance (visual determination): ◯: no change; Δ: almost no change; x: change; settings: photostabilizer 0.05 wt %, daylight exposure (80 MJ)
# Description: For observation of the change of the appearance of each test sample (determination based on visual observation) and the measurement of color difference (ΔE) before and after daylight exposure (80 MJ), the test sample was prepared.
# (§1) With a spectrophotometer, the color was measured on the Lab coordinate system, to calculate the color difference on the basis of the color before daylight exposure. More specifically, the color difference (ΔE) was calculated on the basis of the measured values (L1, a1, b1) before daylight exposure.
# [2] = Stabilization effect on perfume under daylight exposure (Test Examples 92 to 181); set-up: key: ◯: no change; Δ: almost no change; x: change; settings: daylight exposure (80 MJ)
# Description: Each test sample was prepared for observation of the change of the odor of the test sample (determined by perfume coordinator) before and after daylight exposure (80 MJ).
# [3] = Drug stabilization effect under daylight exposure (Test Examples 182 to 211); set-up: key to Appearance (visual determination): ◯: no change; Δ: almost no change; x: change; settings: photostabilizer 0.05 wt %, daylight exposure (80 MJ); for Remaining ratio (%): liquid chromatography
# Description: For observation of the change of the appearance of each test sample (determination based on visual observation) and the measurement of the remaining ratio by liquid chromatography before and after daylight exposure (80 MJ), the test sample was prepared.
# [4] = Dye stabilization effect in blend with sequestering agents (Test Examples 212 to 275); settings: daylight exposure (80 MJ)
# Description: Each test sample was prepared for observation of the change of the appearance of each test sample (determined visually) and measurement of the color difference (ΔE) before and after daylight exposure (80 MJ).
# as §1
# [5] = dye Blue 1 (Brilliant Blue FCF) 0.0001 wt %
# [6] = dye Green 3 (Fast Green FCF) 0.001 wt %
# [7] = dye Red 227 (Acid Fuchsine D) 0.0001 wt %
# [8] = dye Yellow 5 (Sunset Yellow FCF) 0.001 wt %
# [9] = dyes Red 106 (Acid red) 0.00001 + Yellow 203 (Quinoline Yellow WS) 0.0001 wt %
# [10] = dyes Red 213 (Rhodamine B) 0.00001 + Blue 1 (Brilliant Blue FCF) 0.00001 wt %
# [11] = dyes Red 227 (Acid Fuchsine D) 0.0001 + Yellow 5 (Sunset Yellow FCF) 0.0001 wt %
# [12] = dyes Red 401 (Violanin R) 0.0001 + Blue 1 (Brilliant Blue FCF) 0.00001 wt %
# [13] = dyes Yellow 203 (Quinoline Yellow WS) 0.0001 + Yellow 5 (Sunset Yellow FCF) 0.0001 wt %
# [14] = base perfume Fruity, photostabilizer 0.1 wt %
# [15] = base perfume Muge, photostabilizer 0.05 wt %
# [16] = natural perfume Jasmine oil, photostabilizer 0.05 wt %
# [17] = natural perfume Nelori oil, photostabilizer 0.1 wt %
# [18] = synthetic perfume Limonene oil, photostabilizer 0.05 wt %
# [19] = synthetic perfume Rose oxide, photostabilizer 0.2 wt %
# [20] = drug Dipotassium glycyrrhizinate 0.05 wt %
# [21] = drug L-ascorbic acid 2-glucoside 2.0 wt %
# [22] = drug dibutylhydroxytoluene 0.01 wt %
# [23] = drug dl-α-tocopherol 2-L-ascorbic acid phosphate diester potassium salt 0.01 wt %
# [24] = dye Green 3 (Fast Green FCF) 0.001, sequestering agent 0.1 alone, photostabilizer 0
# [25] = dye Yellow 5 (Sunset Yellow FCF) 0.0001, sequestering agent 0.03 alone, photostabilizer 0
compound,measurement,setting,value
"COc1ccc(C(=O)CC(=O)c2ccc(C(C)(C)C)cc2)cc1 [4-tert-Butyl-4′-methoxydibenzoylmethane, reference compound]",Appearance (visual determination),[1]; [5],Δ
same,Δ E,[1]; [5],1.49
same,Appearance (visual determination),[1]; [6],Δ
same,Δ E,[1]; [6],0.62
same,Appearance (visual determination),[1]; [7],Δ
same,Δ E,[1]; [7],0.95
same,Appearance (visual determination),[1]; [8],Δ
same,Δ E,[1]; [8],0.88
same,Appearance (visual determination),[1]; [9],Δ
same,Δ E,[1]; [9],1.02
same,Appearance (visual determination),[1]; [10],Δ
same,Δ E,[1]; [10],1.17
same,Appearance (visual determination),[1]; [11],Δ
same,Δ E,[1]; [11],0.80
same,Appearance (visual determination),[1]; [12],Δ
same,Δ E,[1]; [12],0.93
same,Appearance (visual determination),[1]; [13],◯
same,Δ E,[1]; [13],0.48
same,odor determination,[2]; [14],Δ
same,odor determination,[2]; [15],Δ
same,odor determination,"[2]; base perfume Rose, photostabilizer 0.05 wt %",Δ
same,odor determination,"[2]; base perfume Spicy, photostabilizer 0.2 wt %",Δ
same,odor determination,"[2]; base perfume Woody, photostabilizer 0.1 wt %",Δ
same,odor determination,[2]; [16],Δ
same,odor determination,"[2]; natural perfume Lavender oil, photostabilizer 0.1 wt %",Δ
same,odor determination,[2]; [17],Δ
same,odor determination,"[2]; natural perfume Rose oil, photostabilizer 0.05 wt %",Δ
same,odor determination,"[2]; natural perfume Ylang ylang oil, photostabilizer 0.2 wt %",Δ
same,odor determination,"[2]; synthetic perfume Citral, photostabilizer 0.1 wt %",Δ
same,odor determination,[2]; [18],Δ
same,odor determination,"[2]; synthetic perfume Linalool, photostabilizer 0.05 wt %",Δ
same,odor determination,"[2]; synthetic perfume Linalyl acetate, photostabilizer 0.1 wt %",Δ
same,odor determination,[2]; [19],Δ
same,Appearance (visual determination),[3]; [20],Δ
same,Remaining ratio (%),[3]; [20],96.6%
same,Appearance (visual determination),[3]; [21],Δ
same,Remaining ratio (%),[3]; [21],97.0%
same,Appearance (visual determination),[3]; [22],Δ
same,Remaining ratio (%),[3]; [22],95.2%
same,Appearance (visual determination),[3]; [23],Δ
same,Remaining ratio (%),[3]; [23],94.5%
same,Appearance (visual determination),[3]; drug salicylic acid 0.1 wt %,Δ
same,Remaining ratio (%),[3]; drug salicylic acid 0.1 wt %,97.2%
OCCN(CCO)c1cnnc(O)c1 [5-bis(2-hydroxyethyl)amino-3-hydroxypyridazine],Appearance (visual determination),[1]; [5],◯
same,Δ E,[1]; [5],1.29
same,Appearance (visual determination),[1]; [6],◯
same,Δ E,[1]; [6],0.62
same,Appearance (visual determination),[1]; [7],◯
same,Δ E,[1]; [7],0.55
same,Appearance (visual determination),[1]; [8],◯
same,Δ E,[1]; [8],0.65
same,Appearance (visual determination),[1]; [9],◯
same,Δ E,[1]; [9],0.85
same,odor determination,[2]; [15],◯
same,odor determination,[2]; [16],◯
same,odor determination,[2]; [19],◯
"Oc1nncc(N2CCCCC2)c1N1CCCCC1 [4,5-Dipiperidino-33-hydroxy pyridazine]",Δ E,"[4]; dyes Red 401 (Violanin R) 0.0001 + Green 3 (Fast Green FCF) 0.00001, no sequestering agent, photostabilizer blend amount 0.02",1.52
same,Δ E,"[4]; dyes Red 401 (Violanin R) 0.0001 + Green 3 (Fast Green FCF) 0.00001, with sodium metaphosphate 0.03, photostabilizer blend amount 0.02",0.77
"OCCNc1ccc(NCCO)nn1 [3,6-Bis(2-hydroxyethylamino)pyridazine, 3,6-bis(2-hydroxyethylamino)pyridazine]",Appearance (visual determination),[1]; [5],◯
same,Δ E,[1]; [5],1.38
same,Appearance (visual determination),[1]; [6],◯
same,Δ E,[1]; [6],0.63
same,Appearance (visual determination),[1]; [7],◯
same,Δ E,[1]; [7],0.64
same,Appearance (visual determination),[1]; [8],◯
same,Δ E,[1]; [8],0.66
same,Appearance (visual determination),[1]; [13],◯
same,Δ E,[1]; [13],0.47
same,odor determination,[2]; [14],◯
same,odor determination,[2]; [17],◯
same,odor determination,[2]; [18],◯
same,Appearance (visual determination),[3]; [20],◯
same,Remaining ratio (%),[3]; [20],98.8%
same,Appearance (visual determination),[3]; [21],◯
same,Remaining ratio (%),[3]; [21],98.8%
"CCCCC(CC)COC(=O)/C=C/c1ccc(OC)cc1 (centres unmarked) [p-Methoxycinnamate octyl, reference compound]",Appearance (visual determination),[1]; [5],x
same,Δ E,[1]; [5],5.23
same,Appearance (visual determination),[1]; [6],x
same,Δ E,[1]; [6],1.64
same,Appearance (visual determination),[1]; [7],x
same,Δ E,[1]; [7],1.22
same,Appearance (visual determination),[1]; [8],x
same,Δ E,[1]; [8],1.56
O=C([O-])CN(CCN(CC(=O)[O-])CC(=O)O)CC(=O)[O-].[Na+].[Na+].[Na+] [ethylenediaminetetraacetate trisodium],Δ E,"[4]; dye Blue 1 (Brilliant Blue FCF) 0.001, sequestering agent 0.05 alone, photostabilizer 0",8.32
same,Δ E,[4]; [24],1.75
same,Δ E,"[4]; dye Red 227 (Acid Fuchsine D) 0.0001, sequestering agent 0.02 alone, photostabilizer 0",1.40
same,Δ E,[4]; [25],1.72
same,Δ E,"[4]; dyes Red 106 (Acid Red) 0.00001 + Yellow 5 (Sunset Yellow FCF) 0.0001, sequestering agent blend amount 0.02, photostabilizer 0",4.26
same,Δ E,"[4]; dyes Red 227 (Acid Fuchsine D) 0.0001 + Yellow 5 (Sunset Yellow FCF) 0.0001, sequestering agent blend amount 0.02, photostabilizer 0",1.55
same,Δ E,"[4]; dyes Red 401 (Violanin R) 0.0001 + Blue 1 (Brilliant Blue FCF) 0.00001, sequestering agent blend amount 0.03, photostabilizer 0",3.02
"Oc1nncc(N2CCCCC2)c1N1CCCCC1 [4,5-Dipipendino-3-hydroxypyridazine]",Δ E,"[4]; dyes Red 227 (Acid Fuchsine D) 0.0001 + Yellow 5 (Sunset Yellow FCF) 0.0001, no sequestering agent, photostabilizer blend amount 0.01",1.12
same,Δ E,"[4]; dyes Red 227 (Acid Fuchsine D) 0.0001 + Yellow 5 (Sunset Yellow FCF) 0.0001, with ethylenediaminetetraacetate trisodium 0.02, photostabilizer blend amount 0.01",0.68
"OCCNc1ccc(NCCO)nn1 [3,6-Bis(2-hydroxyethylamino) pyridazine]",Δ E,"[4]; dyes Yellow 203 (Quinoline Yellow WS) 0.0001 + Yellow 5 (Sunset Yellow FCF) 0.0001, no sequestering agent, photostabilizer blend amount 0.02",0.88
same,Δ E,"[4]; dyes Yellow 203 (Quinoline Yellow WS) 0.0001 + Yellow 5 (Sunset Yellow FCF) 0.0001, with sodium metaphosphate 0.01, photostabilizer blend amount 0.02",0.55
"COc1cc(O)c(C(=O)c2ccccc2)cc1S(=O)(=O)[O-].[Na+] [2-Hydroxy-4-methoxybenzophenone-5-sulfonate sodium, reference compound]",Appearance (visual determination),[1]; [5],Δ
same,Δ E,[1]; [5],1.67
same,Appearance (visual determination),[1]; [6],Δ
same,Δ E,[1]; [6],0.74
same,Appearance (visual determination),[1]; [7],Δ
same,Δ E,[1]; [7],0.80
same,Appearance (visual determination),[1]; [8],Δ
same,Δ E,[1]; [8],0.78
sodium polyphosphate,Δ E,[4]; [24],1.75
same,Δ E,[4]; [25],1.70
